Test results taken from ChEMBL document CHEMBL1130482, “Synthesis and activity of C2-substituted analogs of influenza neuraminidase inhibitor GS 4071” (Bioorg Med Chem Lett, 1997).

Assay: Concentration required for the inhibition of influenza neuraminidase activity by 50%
Design: species or system unidentified influenza virus

Compound `CCC(CC)O[C@@H]1C(C)=C(C(=O)O)C[C@H](N)[C@H]1NC(C)=O` has an IC50 of 2.3 µM.

With `CCC(CC)O[C@@H]1C(Cl)=C(C(=O)O)C[C@H](N)[C@H]1NC(C)=O` the IC50 was 3.1 µM.

With `CCC(CC)O[C@@H]1C(SC)=C(C(=O)O)C[C@H](N)[C@H]1NC(C)=O` the IC50 was 3.4 µM.

Work on `CCC(CC)O[C@@H]1C=C(C(=O)O)C[C@H](N)[C@H]1NC(C)=O` [OSELTAMIVIR CARBOXYLATE] yielded an IC50 of 0.0014 µM.
